“Also recorded” adds a separate entry of the source.
Tests used:
[1] = test system: rat liver microsomes; assay: In vitro metabolic stability in rat liver microsomes; type: in vitro ADME; settings: NADPH
Protocol: In vitro metabolic stability. Compounds (each 5 μM) were incubated for specified times at 37° C. with rat liver microsomes (1 mg/ml; Sigma-Aldrich) in potassium phosphate buffer containing 1 mM NADPH, as described^14.

[2] = test system: mice; assay: Tear secretion / tear volume in mice (phenol red thread); type: in vivo, mouse; settings: for tear secretion / tear volume in CF mice: CF mice lacking functional CFTR; for duration of increased tear secretion / increase in tear fluid secretion / tear secretion, in words: single topical dose, wild-type mice
Protocol: (§1) To measure unstimulated tear production, phenol red threads (Zone-Quick, Oasis Medical, Glendora, Calif., USA) were placed for 10 s in the lateral canthi of isofluorane-anesthetized mice using jewelers' forceps. Tear volume was measured as the length of thread wetting, as visualized under a dissecting microscope. Serial measurements were used to evaluate compound pharmacodynamics after application of 2-μL drops of compound formulations (50-100 μM compound in PBS containing 0.5% polysorbate and 0.5% DMSO) comparing to vehicle.
as §1, with “Tear secretion. To” for “To”, “2-[…]L” for “2-μL”
Tear volume. Tear volume was measured using phenol red threads (Zone-Quick, Oasis Medical, Glendora, Calif.) as described. Threads were placed for 10 s in the lateral canthi of isofluorane-anesthetized mice using jewelers' forceps. Tear volume was determined from the length of thread wetting as visualized under a dissecting microscope. Serial measurements were done to evaluate compound pharmacodynamics after topical application of a single, 2.5-μL drop of ophthalmic formulation containing 0-100 μM of 1 or 12 in Ringer's solution with 0.3% carboxymethylcellulose (high viscosity, VWR, Radnor, Pa.), 0.015% benzalkonium chloride preservative, and 1% DMSO. Both eyes in each mouse received the same treatment to control for potential contralateral effects of a given treatment.

[3] = test system: CFTR activity at the ocular surface; assay: Ocular surface potential difference (PD) in living mice; type: in vivo, mouse; settings: wild-type mice; for change in ocular surface PD, in words: 1-10 μM
Protocol: (§2) Open-circuit transepithelial PD were measured continuously in anesthetized mice in response to serial perfusions of different solutions over the ocular surface, as described (21). Mice were anesthetized with Avertin (2,2,2-tribromoethanol, 125 mg/kg intraperitoneal, Sigma-Aldrich, St. Louis, Mo., USA), and core temperature was maintained at 37° C. using a heating pad. Eyes were oriented with the cornea and conjunctiva facing upward and exposed by retracting the eyelid with cross-action forceps. Solutions were isosmolar (320±10 mOsM; compositions provided in ref. 21) and contained 10μ[…] Qindomethacin to prevent CFTR activation by prostaglandins. The ocular surface was perfused at 6 mL/min through plastic tubing using a multireservoir gravity pinch-valve system (ALA Scientific, Westbury, N.Y., USA) and variable-flow peristaltic pump (medium flow model; Fisher Scientific, Fair Lawn, N.J., USA). A probe catheter was fixed 1 mm above the cornea using a micropositioner and a suction cannula was positioned 3 mm from the orbit. The measuring electrode was in contact to the perfusion catheter and connected to a high-impedance voltmeter (IsoMilivolt Meter; WPI). The reference electrode was grounded via a winged 21-gauge needle filled with isosmolar saline, and inserted subcutaneously in the abdomen. Measuring and reference electrodes consisted of Ag/AgCl with 3 M KCl agar bridges.
An open-circuit potential difference (PD) method developed in our lab was used to evaluate compound activity at the ocular surface in vivo, as depicted in FIG. 3A (21). Cl^− channel function was quantified by measuring PD during continuous perfusion of the ocular surface with a series of solutions that imposed a transepithelial Cl^− gradient and contained various channel agonists and/or inhibitors. The ocular surface was first perfused with isosmolar saline to record the baseline PD. Amiloride was then added to the perfusate, followed by exchange to a low Cl^− solution in which Cl^− with an impermeant anion, gluconate. These maneuvers allow for direct visualization of CFTR activation in response to addition of candidate CFTR activators.
as §2, with “Ocular surface potential difference measurements. Open-circuit” for “Open-circuit”, “indomethacin” for “Qindomethacin”, “Measuring and reference electrodes consisted of Ag/AgCl with 3 M KCl agar bridges.” left out

Row | Structure (SMILES) | metabolic stability in hepatic microsomes, in words [1] | tear secretion / tear volume in CF mice [2] | duration of increased tear secretion [2] | increase in tear fluid secretion [2] | tear secretion, in words [2] | change in ocular surface PD, in words [3] | other results
1 | CCN(CC)c1nc(Nc2ccc3ncsc3c2)nc(OC(C(F)(F)F)C(F)(F)F)n1 [6k, N′-(1,3-Benzothiazol-6-yl)-N,N-diethyl-6-[(1,1,1,3,3,3-hexafluoropropan-2-yl)oxy]-1,3,5-triazine-2,4-diamine] | metabolized slowly; also recorded: substantially greater in vitro metabolic stability than 1 or 12 | – | – | – | – | – | original compound remaining at 60 min ([1]; 5 μM, rat hepatic microsomes): ~60%
2 | CCN(CC)c1nc(Nc2ccccc2)nc(OC(C(F)(F)F)C(F)(F)F)n1 [CFTRact-K089, N,N-Diethyl-6-[(1,1,1,3,3,3-hexafluoropropan-2-yl)oxy]-N′-phenyl-1,3,5-triazine-2,4-diamine] | metabolized rapidly | no effect | four and at least four | approximately two-fold | doubled basal tear secretion | large hyperpolarizations | hyperpolarization in ocular surface potential difference [3]: ~8.5 mV
3 | CC(C)(C)c1cc(C(C)(C)C)c(NC(=O)c2c[nH]c3ccccc3c2=O)cc1O [VX-770, reference compound] | – | – | – | – | little tear secretion | minimal changes in ocular surface PD | –
4 | Nc1ccc([N+](=O)[O-])cc1-c1nc2ccccc2n(Cc2ccccc2)c1=O [CFTRact-J027, 3-(2-amino-5-nitrophenyl)-1-benzylquinoxalin-2(1H)-one] | – | – | at least four | approximately two-fold | – | large hyperpolarizations | –
5 | CNc1nc(Nc2ccccc2)nc(OCC(F)(F)C(F)F)n1 [compound 12, N-methyl-N′-phenyl-6-(2,2,3,3-tetrafluoropropoxy)-1,3,5-triazine-2,4-diamine] | rapidly metabolized by hepatic microsomes | without effect; also recorded: did not increase tear volume | – | – | – | – | duration of sustained effect on tear volume ([2]; 25 pmol, single dose): 8 h; duration of sustained increase in tear volume ([2]; 100 μM (250 pmol), single dose): 8 h; time of return of tear volume to baseline ([2]; 100 μM (250 pmol), single dose): 12 to 24 h; time of maximal tear volume ([2]; doses down to 25 pmol): 1 to 3 h; duration of sustained in vivo efficacy ([2]; mice): at least 8 hours; lowest dose with similar activity on tear volume ([2]; single-dose dose-response): 25 pmol
